System: 168753-222-R-J1-PDC complex spheroid viability
Test: Anticancer human tumor 168753-222-R-J1-PDC patient-derived bladder carcinoma cell line growth inhibition [CLK]
Settings: for IC50: curve of first compound; for viability, T/C: stronger effect = lower value
Procedure, shortened: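 Patient-derived tumor cells grown as complex spheroids with HUVEC endothelial cells and mesenchymal stem cells, treated with drug combinations. Concentrations descend in half-log steps from near clinical Cmax, or from 10 microM if Cmax unknown.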

[1] = second compound 0.0316 µM, first compound 0.0316 µM
[2] = second compound 0.0316 µM, first compound 0.1 µM
[3] = second compound 0.0316 µM, first compound 0.316 µM
[4] = second compound 0.0316 µM, first compound 1 µM
[5] = second compound 0.0316 µM, first compound 3.16 µM
[6] = second compound 0.0316 µM, first compound 10 µM
[7] = second compound 0.1 µM, first compound 0.0316 µM
[8] = second compound 0.1 µM, first compound 0.1 µM
[9] = second compound 0.1 µM, first compound 0.316 µM
[10] = second compound 0.1 µM, first compound 1 µM
[11] = second compound 0.1 µM, first compound 3.16 µM
[12] = second compound 0.1 µM, first compound 10 µM
[13] = second compound 0.316 µM, first compound 0.0316 µM
[14] = second compound 0.316 µM, first compound 0.1 µM
[15] = second compound 0.316 µM, first compound 0.316 µM
[16] = second compound 0.316 µM, first compound 1 µM
[17] = second compound 0.316 µM, first compound 3.16 µM
[18] = second compound 0.316 µM, first compound 10 µM
[19] = second compound 1 µM, first compound 0.0316 µM
[20] = second compound 1 µM, first compound 0.1 µM
[21] = second compound 1 µM, first compound 0.316 µM
[22] = second compound 1 µM, first compound 1 µM
[23] = second compound 1 µM, first compound 3.16 µM
[24] = second compound 1 µM, first compound 10 µM
[25] = second compound 3.16 µM, first compound 0.0316 µM
[26] = second compound 3.16 µM, first compound 0.1 µM
[27] = second compound 3.16 µM, first compound 0.316 µM
[28] = second compound 3.16 µM, first compound 1 µM
[29] = second compound 3.16 µM, first compound 3.16 µM
[30] = second compound 3.16 µM, first compound 10 µM
[31] = second compound 10 µM, first compound 0.0316 µM
[32] = second compound 10 µM, first compound 0.1 µM
[33] = second compound 10 µM, first compound 0.316 µM
[34] = second compound 10 µM, first compound 1 µM
[35] = second compound 10 µM, first compound 3.16 µM
[36] = second compound 10 µM, first compound 10 µM
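Further: viability measured after seven days of drug exposure.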
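Wherever viability, T/C is given: luminescence signal used as surrogate for viable cell amount; 100% = DMSO vehicle control wells.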

C=CC(=O)N1CCN(c2nc(=O)n(-c3c(C)ccnc3C(C)C)c3nc(-c4c(O)cccc4F)c(F)cc23)C(C)C1 (stereo unspecified) + CN1CCN(c2cc(C(=O)Nc3cc4cc(-c5cnn(C)c5)ccc4cn3)ccn2)CC1
IC50 (second compound 0.0316 µM): > 10000 nM | IC50 (second compound 0.1 µM): 3770 nM | IC50 (second compound 0.316 µM): < 31.6 nM | IC50 (second compound 1 µM): < 31.6 nM | IC50 (second compound 3.16 µM): < 31.6 nM | IC50 (second compound 10 µM): < 31.6 nM | viability, T/C [1]: 96.6% | viability, T/C [2]: 107% | viability, T/C [3]: 111% | viability, T/C [4]: 133% | viability, T/C [5]: 82.8% | viability, T/C [6]: 100% | viability, T/C [7]: 79.4% | viability, T/C [8]: 84.5% | viability, T/C [9]: 55.5% | viability, T/C [10]: 75.3% | viability, T/C [11]: 52.5% | viability, T/C [12]: 32.1% | viability, T/C [13]: 16.2% | viability, T/C [14]: 13.4% | viability, T/C [15]: 14.2% | viability, T/C [16]: 13.8% | viability, T/C [17]: 12.8% | viability, T/C [18]: 15.2% | viability, T/C [19]: 0.29% | viability, T/C [20]: 0.48% | viability, T/C [21]: 1.79% | viability, T/C [22]: 0.27% | viability, T/C [23]: 0.3% | viability, T/C [24]: 0.2% | viability, T/C [25]: 1.43% | viability, T/C [26]: 0.16% | viability, T/C [27]: 0.55% | viability, T/C [28]: 0.11% | viability, T/C [29]: 1.89% | viability, T/C [30]: 0.22% | viability, T/C [31]: 0.21% | viability, T/C [32]: 0.2% | viability, T/C [33]: 0.6% | viability, T/C [34]: 0.18% | viability, T/C [35]: 0.4% | viability, T/C [36]: 0.57%

O=C(c1cc(Cc2n[nH]c(=O)c3ccccc23)ccc1F)N1CCN(C(=O)C2CC2)CC1 + CNC(=O)c1ccc(Nc2nc(OC3CCCC3)c3c(-c4ccc5nc(C)oc5c4)c[nH]c3n2)c(OC)c1
IC50 (second compound 0.0316 µM): > 10000 nM | IC50 (second compound 0.1 µM): > 10000 nM | IC50 (second compound 0.316 µM): > 10000 nM | IC50 (second compound 1 µM): < 31.6 nM | IC50 (second compound 3.16 µM): < 31.6 nM | IC50 (second compound 10 µM): < 31.6 nM | viability, T/C [1]: 105% | viability, T/C [2]: 113% | viability, T/C [3]: 103% | viability, T/C [4]: 118% | viability, T/C [5]: 114% | viability, T/C [6]: 95.5% | viability, T/C [7]: 92.3% | viability, T/C [8]: 86.1% | viability, T/C [9]: 92.8% | viability, T/C [10]: 95% | viability, T/C [11]: 99.2% | viability, T/C [12]: 93.7% | viability, T/C [13]: 76.8% | viability, T/C [14]: 74.2% | viability, T/C [15]: 68.2% | viability, T/C [16]: 63.6% | viability, T/C [17]: 84.8% | viability, T/C [18]: 70.4% | viability, T/C [19]: 39.7% | viability, T/C [20]: 41% | viability, T/C [21]: 37.3% | viability, T/C [22]: 39.7% | viability, T/C [23]: 44.4% | viability, T/C [24]: 38.4% | viability, T/C [25]: 24.1% | viability, T/C [26]: 26.2% | viability, T/C [27]: 22.7% | viability, T/C [28]: 17.8% | viability, T/C [29]: 22.3% | viability, T/C [30]: 25.5% | viability, T/C [31]: 17.8% | viability, T/C [32]: 18.5% | viability, T/C [33]: 18.7% | viability, T/C [34]: 18.1% | viability, T/C [35]: 18.1% | viability, T/C [36]: 21.3%

C=CC(=O)N1CCN(c2nc(=O)n(-c3c(C)ccnc3C(C)C)c3nc(-c4c(O)cccc4F)c(F)cc23)C(C)C1 (stereo unspecified) + CNC(=O)c1ccc(Nc2nc(OC3CCCC3)c3c(-c4ccc5nc(C)oc5c4)c[nH]c3n2)c(OC)c1
IC50 (second compound 0.0316 µM): > 10000 nM | IC50 (second compound 0.1 µM): > 10000 nM | IC50 (second compound 0.316 µM): > 10000 nM | IC50 (second compound 1 µM): < 31.6 nM | IC50 (second compound 3.16 µM): < 31.6 nM | IC50 (second compound 10 µM): < 31.6 nM | viability, T/C [1]: 107% | viability, T/C [2]: 96.7% | viability, T/C [3]: 111% | viability, T/C [4]: 128% | viability, T/C [5]: 117% | viability, T/C [6]: 113% | viability, T/C [7]: 104% | viability, T/C [8]: 98.5% | viability, T/C [9]: 97.5% | viability, T/C [10]: 107% | viability, T/C [11]: 102% | viability, T/C [12]: 95.2% | viability, T/C [13]: 85.7% | viability, T/C [14]: 83.5% | viability, T/C [15]: 74.8% | viability, T/C [16]: 78.3% | viability, T/C [17]: 94.1% | viability, T/C [18]: 82.2% | viability, T/C [19]: 51.7% | viability, T/C [20]: 35.4% | viability, T/C [21]: 45.4% | viability, T/C [22]: 47.8% | viability, T/C [23]: 41.4% | viability, T/C [24]: 30.9% | viability, T/C [25]: 23.3% | viability, T/C [26]: 25.6% | viability, T/C [27]: 26.6% | viability, T/C [28]: 26.3% | viability, T/C [29]: 30.4% | viability, T/C [30]: 19.4% | viability, T/C [31]: 18.8% | viability, T/C [32]: 23.5% | viability, T/C [33]: 20.9% | viability, T/C [34]: 24.5% | viability, T/C [35]: 19.4% | viability, T/C [36]: 16.4%

Source: PubChem BioAssay AID2060626 (Molecular Pharmacology Branch, DTP, NCI, 2025)
